Each structure is given as a SMILES string.

Consider five compounds from ChEMBL document CHEMBL4808235, “Identification of 6-hydroxy-5-phenyl sulfonylpyrimidin-4(1H)-one APJ receptor agonists” (Bioorg Med Chem Lett, 2021).

The target in one data set is T1, Apelin receptor (Homo sapiens, UniProt P35414).
T1 sequence (P35414 whole entry): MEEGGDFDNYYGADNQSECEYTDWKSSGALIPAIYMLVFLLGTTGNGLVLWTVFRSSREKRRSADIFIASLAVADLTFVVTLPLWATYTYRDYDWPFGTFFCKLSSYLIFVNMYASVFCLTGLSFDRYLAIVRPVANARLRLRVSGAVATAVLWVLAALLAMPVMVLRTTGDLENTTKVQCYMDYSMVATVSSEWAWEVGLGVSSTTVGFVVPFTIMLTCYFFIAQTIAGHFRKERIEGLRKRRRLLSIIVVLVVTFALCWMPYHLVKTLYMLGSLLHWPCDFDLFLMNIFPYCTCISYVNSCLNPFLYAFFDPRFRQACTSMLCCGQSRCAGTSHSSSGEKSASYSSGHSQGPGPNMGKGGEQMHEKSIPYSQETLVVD
As to the kind of experiment: Agonist activity at human APJ receptor assessed as effect on cAMP accumulation by cAMP-Glo assay. Type of data set: functional.
Conditions: not given
For orientation: Cyclic AMP is a second messenger, typically raised through Gs and lowered through Gi signalling.
For the compound `CCCCc1nc(=O)c(S(=O)(=O)c2ccc(-c3ccc(F)cc3)cc2)c(O)n1-c1c(OC)cccc1OC`, the EC50 stood at 0.08 nM.
Still for that read-out and setting: for `CCCCc1nc(=O)c(S(=O)(=O)c2ccccc2)c(O)n1-c1c(OC)cccc1OC` the value was 0.5 nM; for `COc1cccc(OC)c1-n1c(COC(C)C)nc(=O)c(S(=O)(=O)c2ccc(-c3ccc(F)nc3)cc2)c1O`, 0.01 nM.

Tested on in another data set: not listed separately
As to the kind of experiment: in vivo. Conditions: rat, po, 1 mg/kg.
As for `CCOCc1nc(O)c(-c2nnc(Cc3ccc(Cl)cn3)o2)c(O)c1-c1c(OC)cccc1OC` [BMS-986224], the AUC(0-inf) was 15.5 µM·h.

Tested on in a further data set: not listed separately
The data set can be described thus: Metabolic stability in rat liver microsomes assessed as parent compound remaining incubated for 10 mins in presence of NADPH. Format: ADME, Microsome. As to conditions: read-out: Stabilty. For orientation: Liver microsomes are a subcellular fraction often used to study metabolism.
Regarding `COc1cccc(OC)c1-n1c(CCC(C)C)nc(=O)c(S(=O)(=O)c2ccc(-c3ccc(F)nc3)cc2)c1O`, the remaining at 10 min was determined as 1%.
Still for that read-out and setting: for `CCCCc1nc(=O)c(S(=O)(=O)c2ccc(-c3ccc(F)cc3)cc2)c(O)n1-c1c(OC)cccc1OC` the value was 5%; for `CCCCc1nc(=O)c(S(=O)(=O)c2ccccc2)c(O)n1-c1c(OC)cccc1OC`, 93%; for `COc1cccc(OC)c1-n1c(COC(C)C)nc(=O)c(S(=O)(=O)c2ccc(-c3ccc(F)nc3)cc2)c1O`, 30%.

Tested on in another data set: not listed separately
The data set can be described thus: Permeability of the compound at pH 5.5 by PAMPA. Type of data set: ADME. As to conditions: read-out: permeability. For orientation: PAMPA measures passive passage across an artificial lipid membrane.
For the compound `COc1cccc(OC)c1-n1c(CCC(C)C)nc(=O)c(S(=O)(=O)c2ccc(-c3ccc(F)nc3)cc2)c1O`, the Papp is 24.6 ×10⁻⁶ cm/s.
For `CCCCc1nc(=O)c(S(=O)(=O)c2ccc(-c3ccc(F)cc3)cc2)c(O)n1-c1c(OC)cccc1OC`, the Papp turned out to be 41.8 ×10⁻⁶ cm/s.
On the same count and under the same terms, the figure for `CCCCc1nc(=O)c(S(=O)(=O)c2ccccc2)c(O)n1-c1c(OC)cccc1OC` is 14.1 ×10⁻⁶ cm/s; for `COc1cccc(OC)c1-n1c(COC(C)C)nc(=O)c(S(=O)(=O)c2ccc(-c3ccc(F)nc3)cc2)c1O` it is 7.5 ×10⁻⁶ cm/s.

Tested on in another data set: not listed separately
The data set can be described thus: Permeability of the compound at pH 7.4 by PAMPA. Type of data set: ADME. Conditions: read-out: permeability.
Regarding `COc1cccc(OC)c1-n1c(CCC(C)C)nc(=O)c(S(=O)(=O)c2ccc(-c3ccc(F)nc3)cc2)c1O`, the Papp was found to be 3.5 ×10⁻⁶ cm/s.
Same read-out and setting: the figure for `CCCCc1nc(=O)c(S(=O)(=O)c2ccc(-c3ccc(F)cc3)cc2)c(O)n1-c1c(OC)cccc1OC` is 13.2 ×10⁻⁶ cm/s; for `CCCCc1nc(=O)c(S(=O)(=O)c2ccccc2)c(O)n1-c1c(OC)cccc1OC` it is 0.15 ×10⁻⁶ cm/s.
On the same count and under the same terms, the figure for `COc1cccc(OC)c1-n1c(COC(C)C)nc(=O)c(S(=O)(=O)c2ccc(-c3ccc(F)nc3)cc2)c1O` is 0.4 ×10⁻⁶ cm/s.

Tested on in another data set: not listed separately
The data set can be described thus: Metabolic stability in mouse liver microsomes assessed as parent compound remaining incubated for 10 mins in presence of NADPH. Format: ADME, Microsome. Conditions: read-out: Stabilty.
Take `COc1cccc(OC)c1-n1c(CCC(C)C)nc(=O)c(S(=O)(=O)c2ccc(-c3ccc(F)nc3)cc2)c1O`: the remaining at 10 min worked out at 31%.
Same read-out and setting: the figure for `CCCCc1nc(=O)c(S(=O)(=O)c2ccc(-c3ccc(F)cc3)cc2)c(O)n1-c1c(OC)cccc1OC` is 47%; for `CCCCc1nc(=O)c(S(=O)(=O)c2ccccc2)c(O)n1-c1c(OC)cccc1OC` it is 79%.
Same read-out and setting: the figure for `COc1cccc(OC)c1-n1c(COC(C)C)nc(=O)c(S(=O)(=O)c2ccc(-c3ccc(F)nc3)cc2)c1O` is 90%.

Tested on in a further data set: not listed separately
As to the kind of experiment: Cmax in rat at 1 mg/kg, po. Format: ADME, organism-based. More on the design: route oral, dose 1 mg/kg. As to conditions: in vivo.
Consider `CCOCc1nc(O)c(-c2nnc(Cc3ccc(Cl)cn3)o2)c(O)c1-c1c(OC)cccc1OC` [BMS-986224], for which the highest level (Cmax) was 5.3 µM.

The target of another data set is T2, Apelin receptor (Mus musculus, UniProt Q9WV08).
T2 sequence (Q9WV08 whole entry): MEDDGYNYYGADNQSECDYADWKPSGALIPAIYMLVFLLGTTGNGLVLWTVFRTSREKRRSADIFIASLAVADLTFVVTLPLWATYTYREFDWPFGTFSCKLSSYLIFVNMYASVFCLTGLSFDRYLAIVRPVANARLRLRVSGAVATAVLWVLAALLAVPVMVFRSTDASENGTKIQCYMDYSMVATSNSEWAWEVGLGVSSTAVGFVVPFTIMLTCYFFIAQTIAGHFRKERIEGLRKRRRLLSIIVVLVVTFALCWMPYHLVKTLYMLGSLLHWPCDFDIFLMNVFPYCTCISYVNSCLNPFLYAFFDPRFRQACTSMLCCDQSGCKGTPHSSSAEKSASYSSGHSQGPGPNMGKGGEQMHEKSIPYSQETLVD
As to the kind of experiment: Agonist activity at mouse APJ receptor assessed as effect on cAMP accumulation by cAMP-Glo assay.
Conditions: not given
On to `CCCCc1nc(=O)c(S(=O)(=O)c2ccc(-c3ccc(F)cc3)cc2)c(O)n1-c1c(OC)cccc1OC`, for which the EC50 is 0.1 nM.
On the same count and under the same terms, the figure for `CCCCc1nc(=O)c(S(=O)(=O)c2ccccc2)c(O)n1-c1c(OC)cccc1OC` is 1 nM; for `COc1cccc(OC)c1-n1c(COC(C)C)nc(=O)c(S(=O)(=O)c2ccc(-c3ccc(F)nc3)cc2)c1O` it is 0.03 nM.
On the same count and under the same terms, for `CCOCc1nc(O)c(-c2nnc(Cc3ccc(Cl)cn3)o2)c(O)c1-c1c(OC)cccc1OC` [BMS-986224] the value was 0.027 nM.

Tested on in a further data set: not listed separately
The data set can be described thus: AUC (0 to 24 hrs) in rat at 1 mg/kg, po. Format: ADME, organism-based. More on the design: time < 24 hr, route oral, dose 1 mg/kg. Conditions: in vivo.
`CCOCc1nc(O)c(-c2nnc(Cc3ccc(Cl)cn3)o2)c(O)c1-c1c(OC)cccc1OC` [BMS-986224]: the AUC(0-t) at 24 h was 16 µM·h.

Tested on in another data set: not listed separately
As to the kind of experiment: Metabolic stability in human liver microsomes assessed as parent compound remaining incubated for 10 mins in presence of NADPH. Type of data set: ADME, Microsome. As to conditions: read-out: Stabilty.
For `COc1cccc(OC)c1-n1c(CCC(C)C)nc(=O)c(S(=O)(=O)c2ccc(-c3ccc(F)nc3)cc2)c1O`, the remaining at 10 min is 89%.
Still for that read-out and setting: the figure for `CCCCc1nc(=O)c(S(=O)(=O)c2ccc(-c3ccc(F)cc3)cc2)c(O)n1-c1c(OC)cccc1OC` is 100%; for `CCCCc1nc(=O)c(S(=O)(=O)c2ccccc2)c(O)n1-c1c(OC)cccc1OC` it is 89%.
Still for that read-out and setting: the figure for `COc1cccc(OC)c1-n1c(COC(C)C)nc(=O)c(S(=O)(=O)c2ccc(-c3ccc(F)nc3)cc2)c1O` is 84%.

A further data set deals with T3, Apelin receptor (Rattus norvegicus, UniProt Q9JHG3).
T3 sequence (Q9JHG3 whole entry): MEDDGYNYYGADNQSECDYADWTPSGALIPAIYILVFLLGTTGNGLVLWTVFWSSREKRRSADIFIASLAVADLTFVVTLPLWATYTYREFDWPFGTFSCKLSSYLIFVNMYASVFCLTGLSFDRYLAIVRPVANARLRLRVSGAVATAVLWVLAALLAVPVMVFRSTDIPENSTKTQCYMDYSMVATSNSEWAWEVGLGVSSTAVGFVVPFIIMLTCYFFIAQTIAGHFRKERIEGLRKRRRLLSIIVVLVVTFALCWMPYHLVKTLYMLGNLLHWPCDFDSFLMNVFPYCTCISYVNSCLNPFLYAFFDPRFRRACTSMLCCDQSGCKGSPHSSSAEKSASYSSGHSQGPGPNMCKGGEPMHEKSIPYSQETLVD
The data set can be described thus: Agonist activity at rat APJ receptor assessed as effect on cAMP accumulation by cAMP-Glo assay. Type of data set: functional.
Conditions: not given
In the case of `COc1cccc(OC)c1-n1c(CCC(C)C)nc(=O)c(S(=O)(=O)c2ccc(-c3ccc(F)nc3)cc2)c1O`, the EC50 amounted to 0.03 nM.
For `CCCCc1nc(=O)c(S(=O)(=O)c2ccc(-c3ccc(F)cc3)cc2)c(O)n1-c1c(OC)cccc1OC`, the EC50 was determined as 0.02 nM.
The same measure, in the same setting: for `CCCCc1nc(=O)c(S(=O)(=O)c2ccccc2)c(O)n1-c1c(OC)cccc1OC` the value was 0.9 nM; for `COc1cccc(OC)c1-n1c(COC(C)C)nc(=O)c(S(=O)(=O)c2ccc(-c3ccc(F)nc3)cc2)c1O`, 0.02 nM.

Tested on in a further data set: not listed separately
The data set can be described thus: Half life in rat at 1 mg/kg, po. Type of data set: ADME, organism-based. Conditions: in vivo.
For the compound `CCOCc1nc(O)c(-c2nnc(Cc3ccc(Cl)cn3)o2)c(O)c1-c1c(OC)cccc1OC` [BMS-986224], the half-life is 2.3 h.

What is called EC50 is the midpoint of the concentration-response curve. For orientation: AUC(0-inf) means total exposure, with the tail of the curve extrapolated. The term Cmax denotes the highest concentration seen after dosing. Usually AUC(0-t) stands for the area under the concentration-time curve up to a stated or last time point. Higher therefore signals more exposure. One may read the half-life as how long it takes for the measured level to halve. A lower half-life goes with rapid decline.
